Assay results taken from US20260200890A1, “ADAR1 INHIBITORS AND METHODS OF USING THE SAME” (AVAMMUNE THERAPEUTICS INC., priority 2022, published 2026).

Columns and labels:
ADAR1 = biological target: T1, ADAR1 (Homo sapiens, UniProt P55265); experiment: ADAR1 Inhibition Assay (IFN fold-induction, Quanti-Luc luminescence, p110 KO A549 dual cells); type: cell-based; conditions: IFN fold-induction vs DMSO, 24 and 48 h
T1 construct: endogenous in cells; host or cells: p110 KO A549 dual cells
T1 sequence (P55265 1-1226): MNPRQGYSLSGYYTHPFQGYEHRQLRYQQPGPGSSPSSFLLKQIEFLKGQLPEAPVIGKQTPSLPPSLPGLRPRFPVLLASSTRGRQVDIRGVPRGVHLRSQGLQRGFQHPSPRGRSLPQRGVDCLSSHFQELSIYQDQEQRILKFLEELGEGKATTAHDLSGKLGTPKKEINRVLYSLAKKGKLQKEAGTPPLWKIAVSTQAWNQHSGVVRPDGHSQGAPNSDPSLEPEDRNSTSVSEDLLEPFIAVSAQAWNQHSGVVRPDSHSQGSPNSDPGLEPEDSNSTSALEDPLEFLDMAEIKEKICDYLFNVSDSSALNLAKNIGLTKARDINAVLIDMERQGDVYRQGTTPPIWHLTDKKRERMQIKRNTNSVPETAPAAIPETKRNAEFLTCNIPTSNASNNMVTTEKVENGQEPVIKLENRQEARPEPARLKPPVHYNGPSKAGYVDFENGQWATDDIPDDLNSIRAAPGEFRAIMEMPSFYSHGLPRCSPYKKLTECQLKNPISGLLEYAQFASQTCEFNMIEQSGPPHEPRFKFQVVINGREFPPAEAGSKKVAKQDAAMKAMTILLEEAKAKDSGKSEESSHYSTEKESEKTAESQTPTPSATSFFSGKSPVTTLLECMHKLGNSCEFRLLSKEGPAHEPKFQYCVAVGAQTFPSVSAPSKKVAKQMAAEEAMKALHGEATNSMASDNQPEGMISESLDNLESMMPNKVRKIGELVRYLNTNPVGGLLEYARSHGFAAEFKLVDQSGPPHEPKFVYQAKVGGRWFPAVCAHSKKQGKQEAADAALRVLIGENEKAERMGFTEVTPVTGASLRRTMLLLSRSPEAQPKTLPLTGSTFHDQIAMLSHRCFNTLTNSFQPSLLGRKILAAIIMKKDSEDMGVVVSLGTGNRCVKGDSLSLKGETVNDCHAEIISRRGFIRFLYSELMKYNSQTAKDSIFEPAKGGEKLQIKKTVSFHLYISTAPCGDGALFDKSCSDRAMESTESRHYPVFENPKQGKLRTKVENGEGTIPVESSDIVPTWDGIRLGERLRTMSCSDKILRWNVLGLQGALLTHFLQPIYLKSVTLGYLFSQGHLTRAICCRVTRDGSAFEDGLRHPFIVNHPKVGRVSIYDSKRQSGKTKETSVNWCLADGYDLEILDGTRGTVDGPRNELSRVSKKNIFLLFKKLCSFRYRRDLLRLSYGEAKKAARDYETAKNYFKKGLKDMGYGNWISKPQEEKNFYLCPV
Procedure, shortened: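 EC50 derived from IFN fold-induction, calculated as sample RLU over average DMSO RLU. Luminescence measured by Quanti-Luc on samples taken after 24 and 48 h of compound exposure (1% DMSO final, 37 °C, 5% CO2). Cells were p110 KO A549 dual, seeded at 20,000 per well in supplemented DMEM.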

Zα domain of ADAR1 p150 = biological target: T2, Zα domain of ADAR1 p150 (Homo sapiens, UniProt P55265); experiment: SPR binding assay; conditions: 6× his tag Zα domain immobilized on CM5 chip, analyte 0-25 μM
T2 construct: 10 μg/ml of Zα domain of ADAR1 was immobilized on CM5 chip using anti-HIS antibody; made in house
T2 sequence (P55265 133-199 limits assumed): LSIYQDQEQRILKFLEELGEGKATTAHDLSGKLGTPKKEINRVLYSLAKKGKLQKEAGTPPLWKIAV
Method: 6× his tag Za domain of ADAR1 p150 was purified using bacterial purification system. Protein was isolated from supernatant of cell lysate using Ni-NTA resin. For binding assay using SPR, 10 μg/ml of Zα domain of ADAR1 was immobilized on CM5 chip using anti-HIS antibody. Binding was quantified using the following condition below: • Analyte: 25, 12.5, 6.25, 3.125, 1.56, 0.78, 0 μM • Contact time—60 seconds, • Dissociation time—320 seconds • Flow rate—30 μL/minute Running buffer-PBSP+5% DMSO • After curve fitting, Kd values for synthesized compounds was quantified using the instrument software.

A549 p110 KO cells = experiment: IFN-β induction in A549 p110 KO cells; type: cell-based, human
WT A549 cells = experiment: IFN-β induction in WT A549 cells; type: cell-based, human; conditions: compared to A549 p110 KO cells, FIG. 1B
A549 (p110 KO) = experiment: Interferon-stimulated gene expression in A549 (p110 KO); type: cell-based, human; conditions: FIG. 2, FIGS. 3A-3D
HCT 116 = experiment: Interferon-stimulated gene expression in HCT 116; type: cell-based, human; conditions: FIG. 4, FIGS. 5A-5D
B16F10 = experiment: MDA5, IFN-β, CXCL10 levels in murine cancer cell line B16F10; type: cell-based; conditions: FIG. 6, FIGS. 7A-7B
B16F10 melanoma = experiment: B16F10 mouse melanoma model, anti-tumor efficacy; type: in vivo
Text: (§1) Study: A B16F10 mouse melanoma model was used to evaluate the anti-tumor efficacy of Compound 1, alone or in combination with anti-PD-1 therapy.

B16F10 tumors = experiment: Tumor MDA5, IFN-β and CXCL10 levels in mice with B16F10 tumors; type: in vivo, mouse
Text: as §1

SMILES	EC50 (ADAR1)	Kd (Zα domain of ADAR1 p150)	also measured
CCOC(=O)c1cc(-c2ccccc2)sc1NC(=O)COC(=O)c1cccc(S(N)(=O)=O)c1 [Compound 1, Ethyl 5-phenyl-2-(2-((3-sulfamoylbenzoyl)oxy)acetamido)thiophene-3-carboxylate]	≤ 25 µM	≤ 1 µM	IFN-β induction (via ADAR1 inhibition) (A549 p110 KO cells; FIG. 1A): dose-dependent IFN-β induction; IFN-β induction compared to STING agonists cGAMP, ADU-S100, MSA-002 (A549 p110 KO cells; FIG. 1C): superior IFN-β induction; IFN-β induction (WT A549 cells): Lower IFN-β induction; expression of several interferon-stimulated genes (ISGs) (A549 (p110 KO)): dose-dependent expression; expression of several interferon-stimulated genes (ISGs) (HCT 116): dose-dependent expression; upregulation of MDA5, IFN-β, and CXCL10 (B16F10): dose-dependent upregulation; tumor growth inhibition (TGI) (B16F10 melanoma; B16F10 mouse melanoma model, FIG. 8): 45%; tumor weight reduction (B16F10 melanoma; compared to vehicle control, Compound 1 100 μg, FIG. 9): about 60%; tumor MDA5 mRNA levels (B16F10 tumors; B16F10 melanoma model, FIG. 10): significant increase; induction of IFN-β and CXCL10 (B16F10 tumors; B16F10 tumors in mice, FIG. 11A, 11B): increased induction
CCOC(=O)c1cc(-c2ccccc2)sc1NC(=O)Cn1cc(-c2cccc(P(=O)(OCC)OCC)c2)nn1 [Compound 385]	> 100 µM	≤ 1 µM	
CCOC(=O)c1cc(-c2ccccc2)sc1NC(=O)Cn1cc(-c2cccc(P(=O)(O)O)c2)nn1 [Compound 386]	> 100 µM	> 25 µM	
CCOC(=O)c1cc(-c2ccccc2)ncc1NC(=O)CNC(=O)Cc1cccc(NS(C)(=O)=O)c1 [Compound 387]	> 100 µM	≤ 1 µM	
CCOC(=O)c1cc(-c2ccc(P(=O)(O)O)cc2)sc1NC(=O)COC(=O)c1cccc(NS(C)(=O)=O)c1 [Compound 388]	> 100 µM	≤ 1 µM	
CCOC(=O)c1cc(-c2ccc(P(=O)(OCC)OCC)cc2)sc1NC(=O)COC(=O)c1cccc(NS(C)(=O)=O)c1 [Compound 389]	> 100 µM	> 25 µM	
CCOC(=O)c1cc(-c2ccccc2)[nH]c1NC(=O)CNC(=O)c1cccc(NS(C)(=O)=O)c1 [Compound 395]	> 100 µM	> 25 µM	
CCOC(=O)c1cc(-c2ccccc2)sc1NC(=O)COC(=O)C1(c2cccc(NS(C)(=O)=O)c2)CCCC1 [Compound 396]	> 100 µM	≤ 1 µM	
CCOC(=O)c1cc(-c2ccccc2)sc1NC(=O)[C@H]1CCN(Cc2cccc(P(=O)(O)O)c2)C1 [Compound 397]	> 100 µM	≤ 1 µM	
CCOC(=O)c1cc(-c2ccccc2)sc1NC(=O)[C@@H]1CCN(Cc2cccc(P(=O)(O)O)c2)C1 [Compound 398]	> 100 µM	> 25 µM	
CCOC(=O)c1cc(-c2ccccc2)sc1NC(=O)COC(=O)c1cccc(S(=O)(=O)NC(C)=O)c1 [Compound 399]	> 100 µM	≤ 1 µM	
CCOC(=O)c1sc(-c2ccccc2)cc1NC(=O)COC(=O)c1cccc(P(=O)(O)O)c1 [Compound 400]	> 100 µM	1 to 10 µM	
CCOC(=O)c1cc(-c2ccccc2)sc1NC(=O)CNC(=O)Cc1ccc(P(=O)(OCC)OCC)cc1 [Compound 402]	50 to 100 µM	≤ 1 µM	
CCOC(=O)c1cc(-c2ccccc2)[nH]c1NC(=O)[C@@H]1CCN(C(=O)c2cccc(P(=O)(OC)OCC)c2)C1 (stereo partly drawn) [Compound 403]	50 to 100 µM	> 25 µM	
CCOC(=O)c1cc(-c2ccccc2)sc1NC(=O)CNC(=O)Cc1ccc(P(=O)(O)O)cc1 [Compound 405]	50 to 100 µM	≤ 1 µM	
CCOC(=O)c1cc(-c2ccccc2)sc1NC(=O)[C@H]1CCN(C(=O)c2cccc(P(=O)(OCC)OCC)c2)C1 [Compound 406]	50 to 100 µM	≤ 1 µM	
CCOC(=O)c1cc(-c2ccccc2)sc1NC(=O)Cn1cc(CNC(=O)c2cccc(P(=O)(O)O)c2)nn1 [Compound 409]	> 100 µM	≤ 1 µM	
CCOC(=O)c1cc(-c2ccccc2)[nH]c1NC(=O)C1CCN(C(=O)c2cccc(NS(C)(=O)=O)c2)C1 (stereo not drawn) [Compound 412]	> 100 µM	> 25 µM	
CCOC(=O)c1cc(-c2ccccc2)sc1NC(=O)[C@H]1CCCN1C(=O)c1cccc(P(=O)(O)O)c1 [Compound 414]	> 100 µM	≤ 1 µM	
CCOC(=O)c1cc(-c2ccccc2)sc1NC(=O)[C@@H]1CCN(C(=O)c2cccc(P(=O)(OCC)OCC)c2)C1 [Compound 415]	> 100 µM	≤ 1 µM	
CCOC(=O)c1cc(-c2ccccc2)sc1NC(=O)CNC(=O)c1cccc(S(N)(=O)=O)c1 [Compound 416]	> 100 µM	≤ 1 µM	
CCOC(=O)c1nc(-c2ccccc2)oc1NC(=O)COC(=O)c1cccc(P(=O)(O)O)c1 [Compound 418]	> 100 µM	> 10 µM	
CCOC(=O)c1cc(-c2ccccc2)sc1NC(=O)Cn1cc(C(=O)Nc2cccc(P(=O)(O)O)c2)nn1 [Compound 420]	> 100 µM	≤ 1 µM	
CCOC(=O)c1cc(-c2ccccc2)sc1NC(=O)COC(=O)c1ccc(P(=O)(OCC)OCC)cc1 [Compound 421]	> 100 µM	≤ 1 µM	
CCOC(=O)c1cc(-c2ccccc2)sc1NC(=O)COC(=O)c1ccc(P(=O)(O)O)cc1 [Compound 424]	> 100 µM	≤ 1 µM	
CCOC(=O)c1cc(-c2ccccc2)sc1NC(=O)[C@H]1CCN(C(=O)c2cccc(S(N)(=O)=O)c2)C1 [Compound 426]	> 100 µM	≤ 1 µM	
CCOC(=O)c1cc(-c2ccccc2)sc1NC(=O)Cn1cc(-c2cccc(S(N)(=O)=O)c2)nn1 [Compound 427]	> 100 µM	≤ 1 µM	
CCOC(=O)c1cc(-c2ccccc2)sc1NC(=O)[C@H]1CCN(C(=O)c2cccc(S(=O)(=O)NC(C)=O)c2)C1 [Compound 428]	> 100 µM	≤ 1 µM	
